The values that follow come from patent US12060577B2, “Compositions for expanding natural killer cells” (CASE WESTERN RESERVE UNIVERSITY, priority 2017, dated 2024).

The experiment relates to OCI-AML3 target cells. Kind of experiment: effect of TGF-beta and galunisertib on NK cell cytotoxicity (FIG. 11). In kind it is cell-based. The following applies: 72 hours, NK cells expanded with K562 mbIL-21, 5:1 NK:target. As for the experimental part:
NK cell cytotoxic function was assessed by measuring the number of live cells identified by calcein-AM (CAM) labeling. Target cells and NK cells were labeled with CAM (BD Pharmingen, San Jose, Calif.) and calcein-violet (CV) (eBioscience from ThermoFisher), respectively for approximately 15 minutes in the dark at room temperature. NK cells were co-incubated with target cells at the indicated ratios for 4 hours in triplicate at 37° C. in a tissue culture incubator with 5% CO2, and the samples were analyzed by flow cytometry (Attune NXT, Invitrogen) in 96 well plates. The CV-positive NK cells were gated out for analysis. Percent lysis was calculated according to the equation below: […]
Referring to FIG. 11, expanded NK cells (K562 cells expressing mbIL-21) were treated with TGF-beta (5 ng/mL), galunisertib, or a combination thereof for 72 hours. […] That drop can be rescued and reversed by co-administering NK cells with galunisertib (middle and right bars), in which case killing efficacy was improved by about 10%.

Regarding `Cc1cccc(-c2nn3c(c2-c2ccnc4ccc(C(N)=O)cc24)CCC3)n1` [galunisertib], the “improvement of killing efficacy” value was “about 10%”.
